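Compound exposure: 48 hours, 5 concentrations, 96-well plates. The concentration for full growth arrest is given as TGI.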

Among the test systems are MOLT-4 leukemia; 786-0 renal; U251 CNS; SK-MEL-5 melanoma; HOP-62 NSCLC; CCRF-CEM leukemia; DMS 114 small cell lung; DMS 273 small cell lung; HOP-18 NSCLC; DLD-1 colon; SNB-78 CNS; LXFL 529 NSCLC; M19-MEL melanoma; KM20L2 colon; XF 498 CNS.
Holding throughout (experiment): NCI-60 cell line screen, 48 h

As for `COc1ccc(C(=O)/C=C/c2ccc(O)c(O)c2)c(OC)c1`, the TGI in the assay with MOLT-4 leukemia is more than 38.9 µM; in the assay with 786-0 renal, 44.3 µM; in the assay with U251 CNS, 16.6 µM; in the assay on SK-MEL-5 melanoma it was 13.3 µM; in the assay on HOP-62 NSCLC, 60.3 µM; in the assay with CCRF-CEM leukemia it was more than 32 µM.
`O=C1OCC2OC(=O)c3cc(O)c(O)c(O)c3-c3c(O)c(O)c(O)c4c3C(=O)OC(C2OC(=O)c2cc(O)c(O)c(O)c2-c2c1cc(O)c(O)c2O)C1OC(=O)c2c-4c(O)c(O)c(O)c2[C@@H]1C(O)C(O)C(O)C(O)CO` (stereo not given in full): the TGI in the assay on MOLT-4 leukemia came out at 49.8 µM; with 786-0 renal, 34.7 µM; in the assay on U251 CNS, 48.7 µM; in the assay with SK-MEL-5 melanoma, 28 µM; with HOP-62 NSCLC it was 34 µM; in the assay with CCRF-CEM leukemia, 23.7 µM.
For the molecule `C[n+]1ccc(/C2=C3\C=CC(=N3)/C(c3cc[n+](C)cc3)=c3/cc/c([nH]3)=C(\c3cc[n+](C)cc3)C3=N/C(=C(/c4cc[n+](C)cc4)C4C=CC2N4)C=C3)cc1`, the TGI is more than 100 µM with MOLT-4 leukemia; more than 100 µM in the assay with 786-0 renal; more than 32.2 µM in the assay with U251 CNS; more than 100 µM in the assay on SK-MEL-5 melanoma; more than 100 µM in the assay on HOP-62 NSCLC; more than 100 µM with CCRF-CEM leukemia.
For `COc1cc2c(c(OC)c1)/C(=C/Sc1ccccc1)C(=O)N(C(C)(C)C)C2`, the TGI with MOLT-4 leukemia is more than 100 µM; in the assay with 786-0 renal, more than 100 µM; with U251 CNS it was 98.6 µM; in the assay on SK-MEL-5 melanoma, 36.2 µM; in the assay with HOP-62 NSCLC it was 83.8 µM; in the assay with CCRF-CEM leukemia, more than 100 µM.
As for `CN(N=O)C(=O)ON1C(=O)CCC1=O`, the TGI in the assay with DMS 114 small cell lung, in the assay with DMS 273 small cell lung, with HOP-18 NSCLC, with MOLT-4 leukemia, in the assay with 786-0 renal and in the assay with DLD-1 colon was more than 100 µM each time. In addition, the TGI in the assay on SNB-78 CNS, with LXFL 529 NSCLC, in the assay with M19-MEL melanoma, with SK-MEL-5 melanoma, in the assay on HOP-62 NSCLC and in the assay with KM20L2 colon was more than 100 µM each time. The TGI in the assay with CCRF-CEM leukemia is more than 100 µM.
In the case of `COc1cccc(OC)c1C(=O)OCc1ccccc1`, the TGI with DMS 114 small cell lung, in the assay with MOLT-4 leukemia, in the assay with 786-0 renal, with DLD-1 colon, in the assay with XF 498 CNS and in the assay on U251 CNS was more than 100 µM in each case. Also, the TGI in the assay on LXFL 529 NSCLC, in the assay with M19-MEL melanoma, in the assay with SK-MEL-5 melanoma, with HOP-62 NSCLC, with KM20L2 colon and in the assay with CCRF-CEM leukemia was more than 100 µM in each case.
Regarding `CC1(/C=C/CCSc2ccccc2)CC(=O)C2CC1C2(C)C` (stereo not given), the TGI was more than 40.5 µM with MOLT-4 leukemia; more than 54.6 µM in the assay with 786-0 renal; more than 83.7 µM in the assay with U251 CNS; 23 µM in the assay with SK-MEL-5 melanoma; more than 100 µM in the assay with HOP-62 NSCLC; 31 µM in the assay on CCRF-CEM leukemia.
For `C=CCN1C(=O)/C(=C/c2cccs2)N=C1SC/C=C/C`, the TGI is 44.6 µM in the assay on MOLT-4 leukemia; more than 100 µM with 786-0 renal; more than 100 µM with U251 CNS; 37.7 µM in the assay on SK-MEL-5 melanoma; more than 100 µM in the assay on HOP-62 NSCLC; more than 100 µM with CCRF-CEM leukemia.
Regarding `CC(C)(C)OC(=O)N/N=C(/N)Cc1ccc(Cl)cc1`, the TGI with MOLT-4 leukemia, in the assay with 786-0 renal, with U251 CNS, with SK-MEL-5 melanoma, in the assay on HOP-62 NSCLC and with CCRF-CEM leukemia was more than 100 µM in each case.
On to `CC(=O)C1C(=O)C(=O)N(c2cccc([N+](=O)[O-])c2)C1=O` (stereo not given), for which the TGI in the assay on MOLT-4 leukemia, in the assay on 786-0 renal, in the assay with U251 CNS, with SK-MEL-5 melanoma, with HOP-62 NSCLC and with CCRF-CEM leukemia was more than 100 µM in each case.
In the case of `CN(C)c1ccc(NN=C2SC(=Nc3ccccc3)C(=Nc3ccccc3)S2)cc1`, the TGI with MOLT-4 leukemia, with 786-0 renal, in the assay on U251 CNS, in the assay with SK-MEL-5 melanoma, in the assay with HOP-62 NSCLC and with CCRF-CEM leukemia was more than 100 µM each time.
As to `O=C(NC1CCCCC1NC(c1ccccc1)(c1ccccc1)c1ccccc1)C(=O)NC1CCCCC1NC(c1ccccc1)(c1ccccc1)c1ccccc1` (stereo not given), the TGI in the assay with MOLT-4 leukemia was more than 100 µM; in the assay on 786-0 renal it was more than 100 µM; in the assay on U251 CNS, 57.4 µM; in the assay on SK-MEL-5 melanoma it was more than 100 µM; in the assay on HOP-62 NSCLC, more than 100 µM; with CCRF-CEM leukemia, more than 100 µM.
For the molecule `CS(=O)(=O)OCC1CN(S(C)(=O)=O)c2cc(O)ccc21` (stereo not given), the TGI in the assay on MOLT-4 leukemia was 6.93 µM; with 786-0 renal it was 12 µM; in the assay on U251 CNS it was 7.26 µM; with SK-MEL-5 melanoma it was 3.52 µM; with HOP-62 NSCLC it was 7.01 µM; in the assay on CCRF-CEM leukemia it was 5.76 µM.
With `Cn1c(=O)c2c(nc3n2CC(=O)N3CCCCl)n(C)c1=O`, the TGI with MOLT-4 leukemia, in the assay with 786-0 renal, with U251 CNS, with SK-MEL-5 melanoma, in the assay on HOP-62 NSCLC and in the assay on CCRF-CEM leukemia was more than 100 µM each time.
For the molecule `O=C(NNCC(O)COc1ccccc1)c1ccccc1` (stereo not given), the TGI in the assay on MOLT-4 leukemia, with 786-0 renal, in the assay with U251 CNS, in the assay on SK-MEL-5 melanoma, in the assay on HOP-62 NSCLC and in the assay on CCRF-CEM leukemia was more than 100 µM each time.
As for `CC1=NN(C(=O)c2ccncc2)C(=O)C1`, the TGI in the assay with MOLT-4 leukemia, in the assay on 786-0 renal, in the assay with U251 CNS, in the assay on SK-MEL-5 melanoma, in the assay on HOP-62 NSCLC and in the assay on CCRF-CEM leukemia was more than 100 µM throughout.
As to `NC(N)=NCCCC(NC(=O)c1cccc2c(=O)c3ccccc3[nH]c12)C(=O)O` (stereo not given), the TGI with MOLT-4 leukemia, in the assay on 786-0 renal, in the assay on U251 CNS, in the assay with SK-MEL-5 melanoma, in the assay with HOP-62 NSCLC and in the assay on CCRF-CEM leukemia was more than 100 µM each time.

The values are drawn from PubChem BioAssay (NCI).
